For this test, the target named is T1, stearoyl-CoA desaturase (SCD) (Rattus norvegicus, UniProt P07308).
T1 construct: The microsomes were quickly thawed and added to assay buffer so that a concentration of 0.4 mg/ml was achieved; from tissue
T1 sequence (P07308 1-358): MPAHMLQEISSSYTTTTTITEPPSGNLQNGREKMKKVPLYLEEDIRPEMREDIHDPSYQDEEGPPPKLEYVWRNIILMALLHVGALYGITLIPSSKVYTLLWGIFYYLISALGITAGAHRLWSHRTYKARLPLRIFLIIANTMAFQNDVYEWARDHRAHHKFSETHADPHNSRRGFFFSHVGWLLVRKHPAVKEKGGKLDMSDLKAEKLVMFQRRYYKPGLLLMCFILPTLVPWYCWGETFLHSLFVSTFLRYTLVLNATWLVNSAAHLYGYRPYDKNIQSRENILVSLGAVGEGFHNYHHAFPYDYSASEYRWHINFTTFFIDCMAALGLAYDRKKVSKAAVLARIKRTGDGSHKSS
As to the kind of experiment: SCD assay with rat liver microsomes ([3H]stearoyl CoA, adapted from Talamo and Bloch). Type of test: biochemical. The following applies: Table 1; rat liver microsomes 0.2 mg/ml assay final, [3H]stearoyl CoA substrate, 30 min preincubation, 45 min reaction, room temperature. An excerpt:
Male Spraque Dawley Rats were placed on regimented fasting protocol for one week to stimulate SCD enzymatic activity. 48-hour periods were alternated between feeding and fasting to induce and down-regulate SCD activity with SCD activity being induced via carbohydrate rich diet prior to liver perfusion and collection.
The rats were anesthetized with Isoflurane inhalation anesthetic, the liver perfused with cold phosphate buffered saline (PBS), weighed, and chilled in cold homogenization buffer (250 mM sucrose, 10 mM Tris, 1 mM EDTA, pH 7.6.
The livers were finely minced and placed in homogenization tube. 40 mL of homogenization buffer was added to the homogenization tube and the liver homogenized and centrifuged in a pre-chilled […] for 10 min at 4° C.
Following centrifugation, the supernatant was collected and the pellet removed and discarded. The supernatant was centrifuge at 10,000 G for 35 minutes. Following centrifugation, the supernatant was collect and the pellet discarded. The supernatant was then centrifuged in a pre-chilled 45-Ti rotor at 130,000 G (41,000 RPM) for 90 minutes at 4° C.
The supernatant was then aspirated off and the collected microsomal pellet washed in 25 mL of Glycerol PBS (1×PBS 7.4, 20% Glycerol) and resuspended in 4-5 volumes of Glycerol PBS.
The protein concentration of the microsomal preparation was determined by BCA assay (Pierce) and the microsomes were aliquoted and stored at −80° C.
Biobeads were ground to a smaller size in a mortar and pestle and resuspended in 3.6% TCA. The beads were then filtered through […] mesh.
SCD was determined in the desaturase assay buffer. This assay buffer contained 0.1 M Tris buffer, pH 7.2, 2 mM NADH, 4.8 mM ATP, 0.5 mM CoA, 4.8 mM MgCl2, and 0.1% BSA.
1 μl of each compound of Formula I was added to an assay plate by a low volume (0.5-10 μL) multichannel pipette. A DMSO control was also prepared. The microsomes were quickly thawed and added to assay buffer so that a concentration of 0.4 mg/ml was achieved (0.2 mg/ml assay final). 50 μl of the microsome suspension in assay buffer was then added into each well in the compound assay plate, the plate was covered, and the microsomes preincubated with the compounds for 30 minutes on the orbital shaker, 50-75 rpm, at room temperature.
The reaction mixtures were then incubated for 45 minutes on the orbital shaker at 50-75 rpm at room temperature.
The reaction was terminated by the addition of 10 μl of 21% trichloroacetic acid (TCA) to the reaction mixture followed incubation on the orbital shaker for 30 minutes at 50-75 rpm at room temperature followed by centrifugation for 5 minutes at 3700 rpm.
50 μl of a 6% Bio-Bead suspension in H2O was added to the reaction mixture and the assay plate was sealed. The Bio-Bead mixture was incubated on the orbital shaker for 1 hour, 100-150 rpm at room temperature, and then the mixture was centrifuged at 2000 g for 5 minutes to pellet the Bio-Beads.
25 μl of the supernatant was harvested from each well and transferred to a detection plate. 100 μl of OptiPhase SuperMix scinitillation cocktail (containing sufficient NaOH to neutralize the TCA) was added and the solutions mixed by vigorous shaking (300-400 rpm) for 5 minutes at room temperature.
`O=C(CSc1ccc(Cl)cc1)Nc1ccc2ncn(Cc3ccc(Cl)c(Cl)c3)c(=O)c2c1` [LVI, N-{3-[(3,4-dichlorophenyl)methyl]-4-oxo(3-hydroquinazolin-6-yl)}-2-(4-chlorophenylthio)acetamide] registered an IC50 of 2810 nM. Consider `O=C(Nc1ccc2ncn(Cc3ccc(Cl)cc3)c(=O)c2c1)c1ccc(Cn2ccnc2)o1` [LVII, N-{3-[(4-chlorophenyl)methyl]-4-oxo(3-hydroquinazolin-6-yl)}[5-(imidazolylmethyl)(2-furyl)]carboxamide], for which it took 12000 nM to reach half-maximal inhibition (IC50).

Regarding `O=C(Nc1ccc2c(=O)n(Cc3cccc(Cl)c3)cnc2c1)OCc1ccccc1` [LVIII, N-{3-[(3-chlorophenyl)methyl]-4-oxo(3-hydroquinazolin-7-yl)}(phenylmethoxy)carboxamide], the IC50 was 250 nM.

Take `O=C(CSCc1ccccc1)Nc1ccc2ncn(Cc3ccc(Cl)c(Cl)c3)c(=O)c2c1` [LX, N-{3-[(3,4-dichlorophenyl)methyl]-4-oxo(3-hydroquinazolin-6-yl)}-2-(phenylmethylthio)acetamide]: half-maximal inhibition (IC50) was put at 6600 nM. For `COc1ccccc1COC(=O)Nc1ccc2c(=O)n(Cc3ccc(Cl)c(Cl)c3)cnc2c1` [LXI, N-{3-[(3,4-dichlorophenyl)methyl]-4-oxo(3-hydroquinazolin-7-yl)}[(2-methoxyphenyl)methoxy]carboxamide] the value was 700 nM; for `O=C(CO)Nc1ccc2ncn(Cc3ccc(Cl)c(Cl)c3)c(=O)c2c1` [LXII, N-{3-[(3,4-dichlorophenyl)methyl]-4-oxo(3-hydroquinazolin-6-yl)}-2-hydroxyacetamide], 230 nM; for `O=C(Nc1ccc2ncn(Cc3ccc(Cl)c(Cl)c3)c(=O)c2c1)OCc1ccco1` [LXIII, N-{3-[(3,4-dichlorophenyl)methyl]-4-oxo(3-hydroquinazolin-6-yl)}(2-furylmethoxy)carboxamide], 440 nM. For `CC(=O)OCC(=O)Nc1ccc2c(=O)n(Cc3ccc(Cl)c(Cl)c3)cnc2c1` [LXIV, (N-{3-[(3,4-dichlorophenyl)methyl]-4-oxo-3-hydroquinazolin-7-yl}carbamoyl)methyl acetate] the value was 180 nM; for `O=C(Nc1ccc2c(=O)n(Cc3cccc(F)c3)cnc2c1)OCc1ccccc1` [LXIX, N-{3-[(3-fluorophenyl)methyl]-4-oxo(3-hydroquinazolin-7-yl)}(phenylmethoxy)carboxamide], 840 nM; for `CC(=O)OCC(=O)Nc1ccc2c(=O)n(Cc3cccc(Cl)c3)cnc2c1` [LXV, (N-{3-[(3-chlorophenyl)methyl]-4-oxo-3-hydroquinazolin-7-yl}carbamoyl)methyl acetate], 27100 nM. For `CC(=O)OCC(=O)Nc1ccc2c(=O)n(Cc3ccc(Cl)cc3)cnc2c1` [LXVI, (N-{3-[(4-chlorophenyl)methyl]-4-oxo-3-hydroquinazolin-7-yl}carbamoyl)methyl acetate] the value was 16400 nM. `COCCOC(=O)Nc1ccc2c(=O)n(Cc3ccc(Cl)c(Cl)c3)cnc2c1` [LXVII, N-{3-[(3,4-dichlorophenyl)methyl]-4-oxo(3-hydroquinazolin-7-yl)}(2-methoxyethoxy)carboxamide] yielded a half-inhibitory concentration (IC50) of 880 nM.

For the compound `O=C(CO)Nc1ccc2c(=O)n(Cc3cccc(Cl)c3)cnc2c1` [LXVIII, N-{3-[(3-chlorophenyl)methyl]-4-oxo(3-hydroquinazolin-7-yl)}-2-hydroxyacetamide], it took 2690 nM to reach half-maximal inhibition (IC50).

As to `O=C(Nc1ccc2ncn(Cc3ccc(Cl)c(Cl)c3)c(=O)c2c1)Oc1ccc(Cl)cc1` [LXX, N-{3-[(3,4-dichlorophenyl)methyl]-4-oxo(3-hydroquinazolin-6-yl)}(4-chlorophenoxy)carboxamide], 3220 nM corresponded to half-maximal inhibition (IC50).

As to `O=C(Nc1ccc2ncn(Cc3ccc(Cl)c(Cl)c3)c(=O)c2c1)OCCc1ccccc1` [LXXI, N-{3-[(3,4-dichlorophenyl)methyl]-4-oxo(3-hydroquinazolin-6-yl)}(2-phenylethoxy)carboxamide], the IC50 turned out to be 4380 nM. Regarding `CC(=O)OCC(=O)Nc1ccc2c(=O)n(Cc3cccc(F)c3)cnc2c1` [LXXII, (N-{3-[(3-fluorophenyl)methyl]-4-oxo-3-hydroquinazolin-7-yl}carbamoyl)methyl acetate], the IC50 was found to be 290 nM. In the case of `O=C(Nc1ccc2c(=O)n(Cc3ccc(F)c(Cl)c3)cnc2c1)OCc1ccccc1` [LXXIII, N-{3-[(3-chloro-4-fluorophenyl)methyl]-4-oxo(3-hydroquinazolin-7-yl)}(phenylmethoxy)carboxamide] it was 290 nM; in that of `O=C(Nc1ccc2c(=O)n(Cc3ccc(F)c(Cl)c3)cnc2c1)OCc1cccnc1` [LXXIV, N-{3-[(3-chloro-4-fluorophenyl)methyl]-4-oxo(3-hydroquinazolin-7-yl)}(3-pyridylmethoxy)carboxamide], 120 nM. In turn, `O=C(Nc1ccc2ncn(Cc3ccc(Cl)c(Cl)c3)c(=O)c2c1)OCc1ccncc1` [LXXIX, N-{3-[(3,4-dichlorophenyl)methyl]-4-oxo(3-hydroquinazolin-6-yl)}(4-pyridylmethoxy)carboxamide] had an IC50 of 1000 nM. In the case of `CC(=O)OCC(=O)Nc1ccc2c(=O)n(Cc3ccc(F)c(Cl)c3)cnc2c1` [LXXV, (N-{3-[(3-chloro-4-fluorophenyl)methyl]-4-oxo-3-hydroquinazolin-7-yl}carbamoyl)methyl acetate] it was 1090 nM. `O=C(Nc1ccc2c(=O)n(Cc3cccc(F)c3)cnc2c1)OCc1cccnc1` [LXXVI, N-{3-[(3-fluorophenyl)methyl]-4-oxo(3-hydroquinazolin-7-yl)}(3-pyridylmethoxy)carboxamide] had an IC50 of 1340 nM.

`O=C(Nc1ccc2c(=O)n(Cc3ccc(Cl)c(F)c3)cnc2c1)OCc1cccnc1` [LXXVII, N-{3-[(4-chloro-3-fluorophenyl)methyl]-4-oxo(3-hydroquinazolin-7-yl)}(3-pyridylmethoxy)carboxamide] showed an IC50 of 250 nM. Take `CC(=O)OCC(=O)Nc1ccc2c(=O)n(Cc3ccc(Cl)c(F)c3)cnc2c1` [LXXVIII, (N-{3-[(4-chloro-3-fluorophenyl)methyl]-4-oxo-3-hydroquinazolin-7-yl}carbamoyl)methyl acetate]: the IC50 is 1020 nM.

`N#Cc1cccc(COC(=O)Nc2ccc3ncn(Cc4ccc(Cl)c(Cl)c4)c(=O)c3c2)c1` [LXXX, N-{3-[(3,4-dichlorophenyl)methyl]-4-oxo(3-hydroquinazolin-6-yl)}[(3-cyanophenyl)methoxy]carboxamide] registered a half-inhibitory concentration (IC50) of 670 nM.

In turn, `O=C(CO)Nc1ccc2c(=O)n(Cc3ccc(Cl)cc3)cnc2c1` [LXXXI, N-{3-[(4-chlorophenyl)methyl]-4-oxo(3-hydroquinazolin-7-yl)}-2-hydroxyacetamide] gave an IC50 of 3120 nM. For `O=C(CO)Nc1ccc2c(=O)n(Cc3ccc(Cl)c(Cl)c3)cnc2c1` [LXXXII, N-{3-[(3,4-dichlorophenyl)methyl]-4-oxo(3-hydroquinazolin-7-yl)}-2-hydroxyacetamide] the value was 350 nM; for `O=C(Nc1ccc2c(=O)n(Cc3ccc(Cl)c(F)c3)cnc2c1)OCc1ccccc1` [LXXXIII, N-{3-[(4-chloro-3-fluorophenyl)methyl]-4-oxo(3-hydroquinazolin-7-yl)}(phenylmethoxy)carboxamide], 210 nM; for `CN(CCOC(=O)Nc1ccc2ncn(Cc3ccc(Cl)c(Cl)c3)c(=O)c2c1)Cc1ccccc1` [LXXXIV, N-{3-[(3,4-dichlorophenyl)methyl]-4-oxo(3-hydroquinazolin-6-yl)}{2-[methylbenzylamino]ethoxy}carboxamide], 11000 nM.

One may read the IC50 as the concentration that gives 50% inhibition. Low values mean greater potency in that assay, high ones weaker potency in that assay.

The record behind these values is patent US20090105283A1, “3-HYDROQUINAZOLIN-4-ONE DERIVATIVES FOR USE AS STEAROYL CoA DESATURASE INHIBITORS” (priority 2007, published 2009).
